Laboratory results: patent US20260256786A1 (United Therapeutics Corporation, priority 2020, published 2026)
Read-outs that look alike come from different tables or passages of the source.

What was measured:
[1] = ImaT 4 mg/kg insufflation, 24 h time point
Experimental: After dosing, blood samples and lungs were collected at specific time points over a period of 24 hours.
The rats were anesthetized with a mixture of 1.5 to 3% isoflurane USP (Abbott Laboratories, Montreal Canada) in 100% oxygen, and placed on a homoeothermic heating pad to maintain body temperature at 37±1° C.
For all groups, the test article was insufflated using an automated insufflation device. The insufflator tip was inserted just above the bifurcation of the trachea and the discharge of powder was timed to the inhalation cycle of the animal. After dosing, the animals were allowed to recover from anesthesia under surveillance before being returned to their respective cages.
Blood samples of 0.5 mL were collected from the jugular vein at specified time points (see Table 4).
Blood samples were centrifuged (3000 r.p.m. for 10 min., 2-8° C.) and plasma was transferred into an Eppendorf tube labeled with the Study Number, animal I.D., dose group and time point.
For each group, data in this report is expressed as mean±S.E.M.

[2] = Pharmacokinetics of insufflated ImaT powder in rat: lung sections; format: in vivo, Sprague Dawley rats; conditions: for concentration at 0.08 h / concentration at 1 h / concentration at 4 h / concentration at 8 h: male, Sprague Dawley, rat, lung, inhaled, 4 mg/kg
Experimental: Lungs were also harvested at specified time points (see Table 4). […] Lungs werethen harvested. The left lobe was sectioned into three parts; upper, middle and bottom. Each section was separated into two equal pieces. Each piece was weighed and individually placed in a properly labeled tube. Lungs samples were snap-frozen and stored at −80° C. Lung samples were then homogenized in PBS, 0.1% Triton X-100 (200 mg of tissue/mL). The homogenate samples were stored at −80° C.

[3] = section 1 (homogenate), read-out: Lung conc, Section 1
[4] = section 2 (homogenate), read-out: Lung conc, Section 2
[5] = section 3 (homogenate), read-out: Lung conc, Section 3
[6] = section 4 (homogenate), read-out: Lung conc, Section 4
[7] = section 5 (homogenate), read-out: Lung conc, Section 5
[8] = section 6 (homogenate), read-out: Lung conc, Section 6

With `Cc1ccc(NC(=O)c2ccc(CN3CCN(C)CC3)cc2)cc1Nc1nccc(-c2cccnc2)n1` [Imatinib, 4-[(4-methylpiperazin-1-yl)methyl]-N-[4-methyl-3-[(4-pyridin-3-ylpyrimidin-2-yl)amino]phenyl]benzamide] the “Plasma concentration of Imatinib” value [1] was “below the limit of detection”, the “Imatinib concentrations in the lung” value ([2]; ImaT 4 mg/kg insufflation, 24 hour time point) was “below the limit of detection” and the concentration at 0.08 h [2, 3] was 201 ng/mL. For the same compound, the concentration at 1 h [2, 3] was 260 ng/mL, the concentration at 4 h [2, 3] was 62 ng/mL and the concentration at 8 h [2, 3] was 27.2 ng/mL. The concentration at 0.08 h [2, 4] was 1530 ng/mL, the concentration at 1 h [2, 4] was 638 ng/mL and the concentration at 4 h [2, 4] was 51 ng/mL. It also gave a concentration at 8 h [2, 4] of 24.4 ng/mL, a concentration at 0.08 h [2, 5] of 888 ng/mL and a concentration at 1 h [2, 5] of 307 ng/mL. The concentration at 4 h [2, 5] was 55.9 ng/mL, the concentration at 8 h [2, 5] was 21.1 ng/mL and the concentration at 0.08 h [2, 6] was 3000 ng/mL. It also gave a concentration at 1 h [2, 6] of 510 ng/mL, a concentration at 4 h [2, 6] of 68.4 ng/mL and a concentration at 8 h [2, 6] of 24.6 ng/mL. The concentration at 0.08 h [2, 7] was 2580 ng/mL, the concentration at 1 h [2, 7] was 196 ng/mL and the concentration at 4 h [2, 7] was 69.5 ng/mL. It also gave a concentration at 8 h [2, 7] of 22.1 ng/mL, a concentration at 0.08 h [2, 8] of 4740 ng/mL and a concentration at 1 h [2, 8] of 314 ng/mL. The concentration at 4 h [2, 8] was 66.3 ng/mL, the concentration at 8 h [2, 8] was 24.6 ng/mL and the “Time of maximal lung concentration of Imatinib” value ([2]; post-inhalation of ImaT) was 5 min.
